Residues, ends and D or L forms follow the SMILES beside them. *: point of attachment. Cbz = O=C(OCc1ccccc1)*
Columns and labels:
AGS and TMK1 cells = conditions: all LL-37 treatment groups
Description: Cell culture and viability assay—The human gastric adenocarcinoma cell line AGS was purchased from American Type Culture Collection (Manassas, Va., USA). The gastric adenocarcinoma cell TMK1 was obtained from Dr. Eiichi Tahara (University of Hiroshima, Hiroshima, Japan). AGS and TMK1 cells were maintained in RPMI 1640 (Invitrogen) containing 10% fetal bovine serum (Invitrogen), 100 U/mL penicillin G, 100 μg/mL streptomycin, and maintained at 37° C., 95% humidity, and 5% carbon dioxide. Cell viability was determined by lactate dehydrogenase release assay (Roche, Indianapolis, Ind., USA).

AGS cells = conditions: LL-37 20 μg/ml, 24 h
[1] = system: dextran sodium sulfate-induced ulcerative colitis; assay: DSS-induced ulcerative colitis, oral bacteria given during 7 days of DSS; type: in vivo, Balb/c mice; conditions: 600 mg/kg orally once daily
Description: Male Balb/c mice 6-8 weeks old were used in the following experiments. They were allowed free access to standard laboratory chow and tap water. All animals were housed in an air-conditioned room with controlled temperature (22° C.±1° C.), humidity (65%-70%), and day/night cycle (12:12-hr light: dark). Mice were induced with acute colitis by giving 3% dextran sulfate sodium (DSS, molecular weight, 35-50 kDa) prepared in drinking water for 7 days (from Day 0 to Day 7). Normal control mice received tap water throughout the experiment. […] In a different group of transformed NZ3900, 0.25 ng/ml nisin was added and further incubated for 3 h. Bacteria were then harvested by centrifugation (5000 rpm, 15 min) and washed twice with sterilized PBS (pH 7.4) and resuspended in sterilized water to give 2×10^10 cfu/ml. Mice were given intragastrically (i.g.) with 0.5 ml (1×10^10 cfu) bacteria once daily at the beginning of the DSS feeding. Animals were sacrificed at the end of 7 days DSS drinking and bacteria feeding. Colonic myeloperoxidase (MPO) was measured as described previously (Guo X, et al. Gastroenterology 117, 884-892 (1999)). In brief, colon tissues were homogenized in an ice-cold […] PBS (pH 6.0) solution with 0.5% hexa-decyl-trimethyl-ammonium bromide. The homogenate was freeze-thawed three times, followed by repeated sonication for 60 seconds each and centrifugation for 20 minutes at 14,000 revolutions per minutes at 4° C. The activity of the supernatant was determined spectrophotometrically at 450 nm. The final value was expressed as enzyme units per mg of protein. Crypt loss is a histological finding in colitis. Therefore, histological analysis of mice administered with formulations per FIG. 16. The crypts were graded on a 4 grade scale as follows: Grade 0: intact crypt; Grade 1: loss of the basal ⅓ of the crypt; Grade 2: loss of the basal ⅔ of the crypt; Grade 3: loss of entire crypt with surface epithelium remaining intact; Grade 4: loss of both the entire crypt and surface epithelium.

[2] = system: Smad1/5, Smad2/3, cyclin E2; assay: Western blot of Smad/BMP signaling proteins in TMK1 cells; type: cell-based, human; conditions: MG-132, 4 h (1 μmol/L in FIG. 6)
[3] = system: Smad6, Smad7, p21Waf1/Cip1, p15Ink4a, p27Kip1, BMP ligands; assay: RT-PCR / real-time PCR mRNA expression in TMK1 cells; type: cell-based, human; conditions: MG-132, 4 h (1 μmol/L in FIG. 6)

## CC[C@H](C)[C@H](NC(=O)[C@H](CCCCN)NC(=O)[C@H](CCC(=O)O)NC(=O)[C@H](CCCCN)NC(=O)[C@H](CO)NC(=O)[C@H](CCCCN)NC(=O)[C@H](CCCNC(=N)N)NC(=O)[C@H](Cc1ccccc1)NC(=O)[C@H](Cc1ccccc1)NC(=O)[C@H](CC(=O)O)NC(=O)CNC(=O)[C@H](CC(C)C)NC(=O)[C@@H](N)CC(C)C)C(=O)NCC(=O)N[C@@H](CCCCN)C(=O)N[C@@H](CCC(=O)O)C(=O)N[C@@H](Cc1ccccc1)C(=O)N[C@@H](CCCCN)C(=O)N[C@@H](CCCNC(=N)N)C(=O)N[C@H](C(=O)N[C@H](C(=O)N[C@@H](CCC(N)=O)C(=O)N[C@@H](CCCNC(=N)N)C(=O)N[C@H](C(=O)N[C@@H](CCCCN)C(=O)N[C@@H](CC(=O)O)C(=O)N[C@@H](Cc1ccccc1)C(=O)N[C@@H](CC(C)C)C(=O)N[C@@H](CCCNC(=N)N)C(=O)N[C@@H](CC(N)=O)C(=O)N[C@@H](CC(C)C)C(=O)N[C@H](C(=O)N1CCC[C@H]1C(=O)N[C@@H](CCCNC(=N)N)C(=O)N[C@H](C(=O)N[C@@H](CCC(=O)O)C(=O)N[C@@H](CO)C(=O)O)[C@@H](C)O)C(C)C)[C@@H](C)CC)C(C)C)[C@@H](C)CC [LL-37]
AGS and TMK1 cells
  cell viability (lactate dehydrogenase release): unaffected
TMK1 cells; LL-37 20 μg/ml, 24 h
  inhibition of TMK1 cell proliferation ([3H]thymidine incorporation): about 60%
AGS cells
  inhibition of AGS cell proliferation ([3H]thymidine incorporation): 10%

## O=C(O)c1cc(/N=N/c2ccc(S(=O)(=O)Nc3ccccn3)cc2)ccc1O [Sulfasalazine, sulfasalazine]
[1]
  MPO activity: did not affect
  mucus level: did not affect
  number of apoptotic cells in the colonic mucosa: did not affect
  number of microorganisms in the colon: did not affect

## C=C1/C(=C\C=C2/CCC[C@]3(C)[C@@H]([C@H](C)CCCC(C)(C)O)CC[C@@H]23)C[C@@H](O)C[C@@H]1O [1α,25-dihydroxylvitamin D3]
TMK1 cells; 1 μmol/L VD3 for 24 h, read 48 h post-treatment
  TMK1 cell proliferation on induction of endogenous LL-37: inhibited cell proliferation

## CC(C)C[C@@H](C=O)NC(=O)[C@H](CC(C)C)NC(=O)[C@H](CC(C)C)NC(=O)OCc1ccccc1 [MG-132] (Cbz-Leu-Leu-Leu-aldehyde)
[2]
  Smad1/5 phosphorylation: dose-dependently increased
[3]
  BMP4 mRNA expression: dose-dependently increased
